What was measured:
FAAH = target: T1, FAAH (Homo sapiens, UniProt O00519); assay: FAAH inhibition, human brain membrane homogenate assay; type: biochemical; conditions: human brain homogenate; average activity; read-out: Human brain Extract FAAH IC50
T1 construct: Reactions were initiated by adding 12.5 μg of brain microsome; tissue ABS, Inc; host or cells: human brain cerebral cortex, membrane/microsome fraction pooled from 3 donors
T1 sequence (O00519 1-579): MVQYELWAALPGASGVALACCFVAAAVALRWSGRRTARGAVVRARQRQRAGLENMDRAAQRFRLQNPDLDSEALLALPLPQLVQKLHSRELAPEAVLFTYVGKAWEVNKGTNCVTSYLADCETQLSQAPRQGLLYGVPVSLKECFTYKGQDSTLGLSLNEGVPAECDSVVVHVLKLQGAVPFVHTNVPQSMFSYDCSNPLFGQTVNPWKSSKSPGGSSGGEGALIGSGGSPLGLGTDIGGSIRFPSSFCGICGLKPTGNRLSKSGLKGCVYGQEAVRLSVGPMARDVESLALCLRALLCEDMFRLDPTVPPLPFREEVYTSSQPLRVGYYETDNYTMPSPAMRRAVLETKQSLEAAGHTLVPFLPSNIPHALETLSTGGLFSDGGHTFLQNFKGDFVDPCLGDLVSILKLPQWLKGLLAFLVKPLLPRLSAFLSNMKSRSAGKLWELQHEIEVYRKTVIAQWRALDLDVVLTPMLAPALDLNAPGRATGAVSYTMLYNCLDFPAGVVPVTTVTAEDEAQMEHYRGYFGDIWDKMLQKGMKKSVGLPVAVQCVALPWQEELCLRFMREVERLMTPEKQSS

hERG channel = target: T2, hERG channel (Homo sapiens, UniProt Q12809); assay: hERG channel inhibition, automated patch clamp (IonWorks HT, hERG-CHO); type: cell-based; conditions: CHO cells expressing hERG, 600 s incubation; for inhibition at 600 s, 1 µM: 1 μM compound, read-out: hERG Channel Inhibition % (at 1 μM), vehicle-subtracted values; for inhibition at 600 s, 10 µM: 10 μM compound, read-out: hERG Channel Inhibition % (at 10 μM), vehicle-subtracted values
T2 construct: expressed in transfected cells; host or cells: CHO (hERG-CHO), under Geneticin selection
Procedure: Human ether-a-gogo-related (hERG) ion channel encodes the inward rectifying voltage gated potassium channel in the heart and has a major role during the repolarization of the cardiac action potential. It is well established that blockade of this ion channel can lead to potentially lethal arrhythmias. hERG pre-clinical safety data is often used by regulatory agencies in elucidate the toxicity profile of certain compositions. The disclosed compounds of Table 1 were tested for their ability to inhibit hERG ion channels.
Media components include F12 Nutrient Mixture (Ham) with GlutaMAX™ (Invitrogen, Cat#31765), Fetal Bovine Serum, Certified (Invitrogen, Cat#16000-044—not heat activated), and Geneticin® Selective Antibiotic (Invitrogen, Cat#10131-027).
One vial of frozen cells, at 1.62×10^6 cells are thawed into a T150 flask (BD Falcon 355001) with 40 mL of pre-warmed complete media. Cells are cultured at 37° C., 5% CO2 for four hours prior to gently changing media. 99% of cells appear attached at this time point.
The flask is media changed at 24 hours post-thaw, the cells are imaged, media changed, and returned to the incubator. At this point, the cells appear healthy and about 25% confluent in the flask. Cells are typically passed 24-48 hours after thaw according to the following intervals and densities below. Cells are incubated at 30° C. for 48 hours prior to assay.
Using an automated patch clamp apparatus (IonWorks^HT), a three pulse protocol was applied by stepping from a holding potential of −80 mV to […] for 2 s, to activate hERG channels. The membrane voltage was then stepped back to −50 mV for 2 s to evoke a tail current prior to returning to the holding potential for 1 s. This sequence was repeated a further two times. This voltage protocol was applied prior to drug (Pre compound) and after 600 s in the presence of drug (Post compound).
The amplitude of the hERG tail current was calculated by measuring the difference between the maximum current on stepping to −50 mV of the third pulse (i.e. peak of the outward hERG tail current) and the current measured immediately prior to activation of any hERG current. This parameter was assessed before (pre tail current amplitude) and after 600 s incubation (post tail current amplitude) in drug. In order to assess the amount of block produced by test compounds, the data was first filtered using the IonWorks™ software to exclude any cells where the seal resistance was less than 50 MOhm. The remaining data was then exported to an excel compatible data file and only currents with tail currents greater than 250 pA were analyzed. The post/pre tail current amplitude ratio for the third pulse was calculated for each drug and control, and presented as percent inhibition.

T2 sequence (Q12809 whole entry): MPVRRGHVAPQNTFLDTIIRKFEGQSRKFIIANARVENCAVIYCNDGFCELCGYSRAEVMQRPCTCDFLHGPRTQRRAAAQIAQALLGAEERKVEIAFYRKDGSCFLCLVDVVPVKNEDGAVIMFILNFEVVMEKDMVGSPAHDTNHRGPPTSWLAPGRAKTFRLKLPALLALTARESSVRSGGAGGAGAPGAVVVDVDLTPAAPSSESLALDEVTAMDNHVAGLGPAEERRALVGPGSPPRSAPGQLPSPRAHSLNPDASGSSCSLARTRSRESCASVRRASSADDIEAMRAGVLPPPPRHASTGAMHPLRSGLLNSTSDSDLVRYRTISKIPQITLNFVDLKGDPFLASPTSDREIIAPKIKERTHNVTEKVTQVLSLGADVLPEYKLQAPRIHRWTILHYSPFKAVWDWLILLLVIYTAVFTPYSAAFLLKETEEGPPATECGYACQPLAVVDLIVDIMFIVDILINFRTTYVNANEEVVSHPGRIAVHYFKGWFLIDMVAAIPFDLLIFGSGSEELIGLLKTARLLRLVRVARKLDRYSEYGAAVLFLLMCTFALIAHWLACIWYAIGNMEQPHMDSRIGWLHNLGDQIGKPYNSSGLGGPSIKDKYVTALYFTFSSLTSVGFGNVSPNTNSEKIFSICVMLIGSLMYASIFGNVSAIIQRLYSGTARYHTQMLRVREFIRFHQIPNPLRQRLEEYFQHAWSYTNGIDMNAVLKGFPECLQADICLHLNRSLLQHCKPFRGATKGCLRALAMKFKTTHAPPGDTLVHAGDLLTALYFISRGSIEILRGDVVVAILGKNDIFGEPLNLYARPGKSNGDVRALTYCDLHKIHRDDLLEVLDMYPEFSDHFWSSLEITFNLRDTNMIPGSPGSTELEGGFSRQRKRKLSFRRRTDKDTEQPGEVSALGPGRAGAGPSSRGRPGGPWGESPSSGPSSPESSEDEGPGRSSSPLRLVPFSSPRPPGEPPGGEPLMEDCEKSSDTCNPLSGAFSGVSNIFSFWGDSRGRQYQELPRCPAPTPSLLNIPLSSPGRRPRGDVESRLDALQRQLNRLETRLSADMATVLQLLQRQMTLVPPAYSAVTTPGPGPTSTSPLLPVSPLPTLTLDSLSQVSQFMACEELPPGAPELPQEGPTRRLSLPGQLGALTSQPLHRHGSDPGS

COc1cc(NC(=O)C(=O)c2c(C)n(Cc3ccc(Cl)cc3)c3ccc(C(=O)N(C)C)cc23)ccn1 [Compound 6, 1-(4-chlorobenzyl)-3-(2-(2-methoxypyridin-4-ylamino)-2-oxoacetyl)-N,N,2-trimethyl-1H-indole-5-carboxamide]
IC50 (FAAH): 0.1 to 1 µM | inhibition at 600 s, 1 µM (hERG channel): < 25% | inhibition at 600 s, 10 µM (hERG channel): < 25%

COc1cc(NC(=O)C(=O)c2c(C)n(Cc3ccc(Cl)cc3)c3ccc(N(C)C(=O)OC(C)(C)C)cc23)ccn1 [Compound 7, Tert-butyl(1-(4-chlorobenzyl)-3-(2-((2-methoxypyridin-4-yl)amino)-2-oxoacetyl)-2-methyl-1H-indol-5-yl)(methyl)carbamate]
IC50 (FAAH): 0.1 to 1 µM | inhibition at 600 s, 1 µM (hERG channel): < 25% | inhibition at 600 s, 10 µM (hERG channel): < 25%

COc1ccc2c(c1)c(C(=O)C(=O)Nc1ccnc(OC)c1)c(C)n2Cc1ccncc1 [Compound 16, 2-(5-methoxy-2-methyl-1-(pyridin-4-ylmethyl)-1H-indol-3-yl)-N-(2-methoxypyridin-4-yl)-2-oxoacetamide]
IC50 (FAAH): 0.1 to 1 µM | inhibition at 600 s, 1 µM (hERG channel): < 25% | inhibition at 600 s, 10 µM (hERG channel): < 25%

CCN(CC)c1ccc2c(c1)c(C(=O)C(=O)Nc1ccnc(OC)c1)c(C)n2Cc1ccc(Cl)cc1 [Compound 24, 2-(1-(4-chlorobenzyl)-5-(diethylamino)-2-methyl-1H-indol-3-yl)-N-(2-methoxypyridin-4-yl)-2-oxoacetamide]
IC50 (FAAH): 1 to 10 µM

CNCc1ccc2c(c1)c(C(=O)C(=O)Nc1ccnc(OC)c1)c(C)n2Cc1ccc(Cl)cc1 [Compound 25, 2-(1-(4-chlorobenzyl)-2-methyl-5-((methylamino)methyl)-1H-indol-3-yl)-N-(2-methoxypyridin-4-yl)-2-oxoacetamide]
IC50 (FAAH): 0.1 to 1 µM

COc1cc(NC(=O)C(=O)c2c(C)n(Cc3ccc(Cl)cc3)c3ccc(CN(C)C)cc23)ccn1 [Compound 26, 2-(1-(4-chlorobenzyl)-5-((dimethylamino)methyl)-2-methyl-1H-indol-3-yl)-N-(2-methoxypyridin-4-yl)-2-oxoacetamide]
IC50 (FAAH): 0.1 to 1 µM

C=Cc1ccc2c(c1)c(C(=O)C(=O)Nc1ccnc(OC)c1)c(C)n2Cc1ccc(Cl)cc1 [Compound 27, 2-(1-(4-chlorobenzyl)-2-methyl-5-vinyl-1H-indol-3-yl)-N-(2-methoxypyridin-4-yl)-2-oxoacetamide]
IC50 (FAAH): < 0.1 µM

COc1cc(NC(=O)C(=O)c2c(C)n(Cc3ccc(Cl)cc3)c3cnccc23)ccn1 [Compound 35, 2-(1-(4-chlorobenzyl)-2-methyl-1H-pyrrolo[2,3-c]pyridin-3-yl)-N-(2-methoxypyridin-4-yl)-2-oxoacetamide]
IC50 (FAAH): 0.1 to 1 µM

COc1ccc2c(c1)c(C(=O)C(=O)Nc1ccnc(OC)c1)c(C)n2Cc1ccc(S(C)(=O)=O)cc1 [Compound 39, 2-(5-methoxy-2-methyl-1-(4-(methylsulfonyl)benzyl)-1H-indol-3-yl)-N-(2-methoxypyridin-4-yl)-2-oxoacetamide]
IC50 (FAAH): 1 to 10 µM

COc1ccc(Cn2c(C)c(C(=O)C(=O)Nc3ccnc(OC)c3)c3cc(OC)cnc32)nc1 [Compound 40, 2-(5-methoxy-1-((5-methoxypyridin-2-yl)methyl)-2-methyl-1H-pyrrolo[2,3-b]pyridin-3-yl)-N-(2-methoxypyridin-4-yl)-2-oxoacetamide]
IC50 (FAAH): < 0.1 µM | inhibition at 600 s, 1 µM (hERG channel): < 25% | inhibition at 600 s, 10 µM (hERG channel): < 25%

COc1ccc2c(c1)c(C(=O)C(=O)Nc1ccnc(O)c1)c(C)n2Cc1ccc(Cl)cc1 [Compound 50, 2-(1-(4-chlorobenzyl)-5-methoxy-2-methyl-1H-indol-3-yl)-N-(2-hydroxypyridin-4-yl)-2-oxoacetamide]
IC50 (FAAH): 1 to 10 µM

COc1cc(NC(=O)C(=O)c2c(C)n(Cc3ccc(Cl)cc3)c3c(OC)cccc23)ccn1 [Compound 51, 2-(1-(4-chlorobenzyl)-7-methoxy-2-methyl-1H-indol-3-yl)-N-(2-methoxypyridin-4-yl)-2-oxoacetamide]
IC50 (FAAH): 0.1 to 1 µM | inhibition at 600 s, 1 µM (hERG channel): < 25% | inhibition at 600 s, 10 µM (hERG channel): < 25%

COc1ccc2c(c1)c(C(=O)C(=O)Nc1ccnc(OC)c1Cl)c(C)n2Cc1ccc(Cl)cc1 [Compound 52, N-(3-chloro-2-methoxypyridin-4-yl)-2-(1-(4-chlorobenzyl)-5-methoxy-2-methyl-1H-indol-3-yl)-2-oxoacetamide]
IC50 (FAAH): > 10 µM | inhibition at 600 s, 1 µM (hERG channel): < 25% | inhibition at 600 s, 10 µM (hERG channel): < 25%

COc1ccc2c(c1)c(C(=O)C(=O)Nc1ccnc(OC)c1F)c(C)n2Cc1ccc(Cl)cc1 [Compound 53, 2-(1-(4-chlorobenzyl)-5-methoxy-2-methyl-1H-indol-3-yl)-N-(3-fluoro-2-methoxypyridin-4-yl)-2-oxoacetamide]
IC50 (FAAH): 0.1 to 1 µM | inhibition at 600 s, 1 µM (hERG channel): < 25% | inhibition at 600 s, 10 µM (hERG channel): < 25%

COc1cc(NC(=O)C(=O)c2c(C)n(Cc3ccc(Cl)cc3)c3ccc(OC)c(OC)c23)ccn1 [Compound 56, 2-(1-(4-chlorobenzyl)-4,5-dimethoxy-2-methyl-1H-indol-3-yl)-N-(2-methoxypyridin-4-yl)-2-oxoacetamide]
IC50 (FAAH): 0.1 to 1 µM

COc1cc(NC(=O)C(=O)c2c(C)n(Cc3ccc(Cl)cc3)c3ccc(OC)c(Cl)c23)ccn1 [Compound 58, 2-(4-chloro-1-(4-chlorobenzyl)-5-methoxy-2-methyl-1H-indol-3-yl)-N-(2-methoxypyridin-4-yl)-2-oxoacetamide]
IC50 (FAAH): < 0.1 µM

COc1cc(NC(=O)C(=O)c2c(C)n(Cc3ccc(Cl)cn3)c3ccc([N+](=O)[O-])cc23)ccn1 [Compound 62, 2-(1-((5-chloropyridin-2-yl)methyl)-2-methyl-5-nitro-1H-indol-3-yl)-N-(2-methoxypyridin-4-yl)-2-oxoacetamide]
IC50 (FAAH): < 0.1 µM

COc1cc(NC(=O)C(=O)c2c(C)n(Cc3ccc(Cl)cn3)c3ccc(N)cc23)ccn1 [Compound 65, 2-(5-amino-1-((5-chloropyridin-2-yl)methyl)-2-methyl-1H-indol-3-yl)-N-(2-methoxypyridin-4-yl)-2-oxoacetamide]
IC50 (FAAH): 0.1 to 1 µM

COc1cc(NC(=O)C(=O)c2c(C)n(Cc3ccc(Cl)cc3)c3ccc(N)c(Cl)c23)ccn1 [Compound 73, 2-(5-amino-4-chloro-1-(4-chlorobenzyl)-2-methyl-1H-indol-3-yl)-N-(2-methoxypyridin-4-yl)-2-oxoacetamide]
IC50 (FAAH): 0.1 to 1 µM

COc1cc(NC(=O)C(=O)c2c(C)n(Cc3ccc(Cl)cn3)c3cc(C)c(OC)cc23)ccn1 [Compound 95, 2-(1-((5-chloropyridin-2-yl)methyl)-5-methoxy-2,6-dimethyl-1H-indol-3-yl)-N-(2-methoxypyridin-4-yl)-2-oxoacetamide]
IC50 (FAAH): < 0.1 µM

COc1ccc2c(c1)c(C(=O)C(=O)Nc1ccnc(OC)c1)c(C)n2Cc1ncc(Cl)cc1OC [Compound 100, 2-(1-((5-chloro-3-methoxypyridin-2-yl)methyl)-5-methoxy-2-methyl-1H-indol-3-yl)-N-(2-methoxypyridin-4-yl)-2-oxoacetamide]
IC50 (FAAH): 0.1 to 1 µM | inhibition at 600 s, 1 µM (hERG channel): < 25% | inhibition at 600 s, 10 µM (hERG channel): < 25%
